Measured values as given in ChEMBL document CHEMBL3124915, “One-step semisynthesis of oleacein and the determination as a 5-lipoxygenase inhibitor” (J Nat Prod, 2014).

Key:
[1] = biological target: T1, Polyunsaturated fatty acid 5-lipoxygenase (Homo sapiens, UniProt P09917); experiment: Inhibition of human recombinant 5-lipoxygenase using arachidonic acid as substrate preincubated for 10 mins before substrate addition measured after 10 mins by HPLC analysis
T1 sequence (P09917 whole entry): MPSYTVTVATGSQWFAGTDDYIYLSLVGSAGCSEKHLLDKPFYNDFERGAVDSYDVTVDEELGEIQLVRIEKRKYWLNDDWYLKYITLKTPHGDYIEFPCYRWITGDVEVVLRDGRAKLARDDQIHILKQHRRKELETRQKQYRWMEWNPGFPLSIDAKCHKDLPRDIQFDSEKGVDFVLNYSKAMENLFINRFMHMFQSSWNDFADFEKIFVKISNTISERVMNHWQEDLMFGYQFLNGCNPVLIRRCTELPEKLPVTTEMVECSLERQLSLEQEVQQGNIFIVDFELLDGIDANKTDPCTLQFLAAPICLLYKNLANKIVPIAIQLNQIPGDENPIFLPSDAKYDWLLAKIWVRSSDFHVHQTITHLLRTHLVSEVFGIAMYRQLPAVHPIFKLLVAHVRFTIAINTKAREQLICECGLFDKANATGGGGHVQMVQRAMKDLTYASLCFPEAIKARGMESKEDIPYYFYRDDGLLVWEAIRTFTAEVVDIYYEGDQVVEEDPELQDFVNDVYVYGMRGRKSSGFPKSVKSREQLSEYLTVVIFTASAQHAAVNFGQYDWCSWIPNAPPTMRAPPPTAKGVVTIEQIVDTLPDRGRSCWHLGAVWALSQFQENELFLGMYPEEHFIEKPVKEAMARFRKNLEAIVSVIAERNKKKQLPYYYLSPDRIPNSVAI

[2] = biological target: T2, Polyunsaturated fatty acid 5-lipoxygenase (Homo sapiens) (UniProt P09917); experiment: Inhibition of human recombinant 5-lipoxygenase expressed in Escherichia coli Bl21 (DE3) using arachidonic acid as substrate preincubated at 10 uM for 10 mins before substrate addition measured after 10 mins by HPLC analysis
T2 sequence (whole entry): T1 sequence (P09917 whole entry)

Which results are given for OCCc1ccc(O)c(O)c1 [HYDROXYTYROSOL]?
IC50 [1]: 13 µM; inhibition [2]: 48%

Which inhibition [2] does the source give for C/C=C1/[C@H](O[C@@H]2O[C@H](CO)[C@@H](O)[C@H](O)[C@H]2O)OC=C(C(=O)OC)[C@H]1CC(=O)OCCc1ccc(O)c(O)c1 here?
Its inhibition is 35%.

What does the source list for C/C=C(/C=O)[C@@H](CC=O)CC(=O)OCCc1ccc(O)c(O)c1?
IC50 [1]: 2 µM; inhibition [2]: 90%

For C/C=C(/C=O)[C@@H](CC=O)CC(=O)OCCc1ccc(O)cc1, which inhibition [2] is on record?
Its inhibition is 48%.

For OCCc1ccc(O)cc1, which inhibition [2] is on record?
The inhibition was 20%.
